Measured values from patent US20250388592A1 (REMYND N.V., priority 2022, published 2025).

What follows are compounds tested on M17_3TAU(P301L) cells (assay: TAU-induced cytotoxicity (LDH) in the neuroblastoma tauopathy model). Conditions: Homo sapiens, 168 h, inhibition of TAU-induced toxicity, 7 days retinoic acid differentiation, LDH readout.
Format: cell-based
From the text: A TAU expression plasmid was constructed by sub-cloning the cDNA encoding for human TAU-P301L protein, wherein proline at position 301 is substituted by a leucine residue, into mammalian expression vector pcDNA3.1 resulting in the plasmid pcDNA3.1-TAUP301L. Plasmids pcDNA3.1 and pcDNA3.1-TAU P301L were transfected into human neuroblastoma cells (BE-M17; ATCC No. CRL-2267™) using lipofectamine reagent and subsequently, independent clonal cell lines with the plasmids stably integrated into the genome were selected by antibiotic resistance selection (Geneticin (G418)), resulting in cell lines M17.pcDNA3 and M17_3TAUP301L. Expression of the TAUP301 L gene in the M17_3TAUP301 L cells was confirmed by Western blot analysis.
Differentiation of the cells with RA leads to phosphorylation and subsequent aggregation of TAU, inducing a tauopathy in these cells. Cytotoxicity of cells was measured by quantification of lactate dehydrogenase (LDH) levels. In dead cells LDH is leaked out of the cells into the medium due to a loss of plasma-membrane integrity.
Briefly, 3 days preceding the experiment pre-cultures of M17.pcDNA3 and M17_3TAU(P301L) cells were prepared, starting from a stock culture, at a density of 50.000-100.000 cells/cm2 in detection medium (Optimem Reduced Serum without phenol red (Gibco, Cat. 31985-047) supplemented with 1% fetal calf serum (FCS), 1 mM sodium pyruvate, 1×non-essential amino acids (NEAA), 500 μg/ml G418 and 0.5×antibiotic/antimycotic (ABAM)). At the day of the experiment these precultures were diluted to ˜[…] in detection medium without FCS and 60 μL of this suspension is dispensed per well into a 96-well microtiter plate. After 3 hours of incubation at 37° C./5% C02 an equal volume of detection medium containing 2.5 μM RA was added and subsequently incubated for 7 days at 37° C./5% CO2. After 7 days, LDH activity was determined using the Promega Cytotox 96 Non-Radioactive cytotoxicity assay (Cat. G1780), according the manufacturer's instructions. Cytotoxicity is measured as the ratio of LDH increase in the supernatant divided by the LDH increase in the total cell suspension (sum of the LDH measured in cells and supernatant). Toxicity was determined after 7 days of differentiation with retinoic acid in M17_3TAU(P301 L) cells compared to M17.pcDNA3 cells.
The M17_3TAU(P301L) cell line makes it possible to assess the ability of novel compounds to inhibit TAU-induced cytotoxicity. […] Compounds were tested for their ability to hamper TAU-induced toxicity at different concentrations, ranging from low non-effective concentrations to high potent concentrations. Afterwards, the dose-dependent inhibition curve was used to calculate their EC50 (Table 3B).
In the case of COc1cccc(CN2CC3(C2)CN(C(=O)CC2CCC(F)(F)CC2)C3)c1 [Cpd B074], the EC50 is reported as 0.00361 µM.
With COc1cccc(CN2CC3(C2)CN(C(=O)CN(C)c2ccccc2)C3)c1 [Cpd B075] the EC50 was 0.0613 µM.
For Cc1cccnc1CN1CC2(C1)CN(C(=O)Cc1ccc(F)c(C(F)(F)F)c1)C2 [Cpd B077], the EC50 was 0.00368 µM.
Cc1cccnc1CN1CC2(C1)CN(C(=O)Cc1ccc(C(F)(F)F)cc1)C2 [Cpd B078] was tested, and the EC50 was 0.0126 µM.
Cc1cccnc1CN1CC2(C1)CN(C(=O)Cc1cccc(C(F)(F)F)c1)C2 [Cpd B079] showed an EC50 of 0.0134 µM.
Compound Cc1cccnc1CN1CC2(C1)CN(C(=O)CCC1CCCCC1)C2 [Cpd B081] has an EC50 of 0.00969 µM.
Cc1cccnc1CN1CC2(C1)CN(C(=O)CC1CCCCC1)C2 [Cpd B082] gave an EC50 of 0.0279 µM.
Cc1cccnc1CN1CC2(C1)CN(C(=O)CC1CCC(F)(F)CC1)C2 [Cpd B083] was tested, and the EC50 was 0.0189 µM.
Compound Cc1cccnc1CN1CC2(C1)CN(C(=O)C(C)(C)Oc1ccc(Cl)cc1)C2 [Cpd B085] has an EC50 of 3.76 µM.
Cc1cccnc1CN1CC2(C1)CN(C(=O)c1cccc3cc[nH]c13)C2 [Cpd B086] was tested, and the EC50 was 0.437 µM.
Cc1cccnc1CN1CC2(C1)CN(C(=O)C(F)(F)c1ccc(F)cc1)C2 [Cpd B087] was tested, and the EC50 was 1.02 µM.
For O=C(CCC1CCCCC1)N1CC2(CN(Cc3ccc(F)cc3)C2)C1 [Cpd B089], the EC50 was 0.00293 µM.
O=C(Cc1ccc(OC(F)(F)F)cc1)N1CC2(CN(Cc3ccc(F)cc3)C2)C1 [Cpd B090] gave an EC50 of 0.00915 µM.
In the case of O=C(Cc1cccc(C(F)(F)F)c1)N1CC2(CN(Cc3ccc(F)cc3)C2)C1 [Cpd B091], the EC50 is reported as 0.00456 µM.
With N#Cc1ccc(CC(=O)N2CC3(CN(Cc4ccc(F)cc4)C3)C2)cc1 [Cpd B092] the EC50 was 0.0139 µM.
O=C(Cc1ccccc1F)N1CC2(CN(Cc3ccc(F)cc3)C2)C1 [Cpd B093] showed an EC50 of 0.0746 µM.
O=C(COc1ccc(F)cc1)N1CC2(CN(Cc3ccc(F)cc3)C2)C1 [Cpd B098] showed an EC50 of 0.0715 µM.
With O=C(N1CC2(CN(Cc3ccc(F)cc3)C2)C1)C(F)(F)c1ccc(F)cc1 [Cpd B099] the EC50 was 0.086 µM.
Cc1nc(CN2CC3(C2)CN(C(=O)Cc2cccc(C(F)(F)F)c2)C3)cs1 [Cpd B100] was tested, and the EC50 was 0.261 µM.
For Cc1nc(CN2CC3(C2)CN(C(=O)Cc2ccc(F)c(C(F)(F)F)c2)C3)cs1 [Cpd B101], the EC50 was 0.0766 µM.
Cc1nc(CN2CC3(C2)CN(C(=O)CC2CCC(F)(F)CC2)C3)cs1 [Cpd B102] showed an EC50 of 0.0264 µM.
Compound Cc1nc(CN2CC3(C2)CN(C(=O)COc2ccc(F)cc2)C3)cs1 [Cpd B103] has an EC50 of 2 µM.
For O=C(CC1CCC(F)(F)CC1)N1CC2(CN(Cc3ccc(F)cc3C(F)(F)F)C2)C1 [Cpd B104, 2-(4,4-difluorocyclohexyl)-1-(6-(4-fluoro-2-(trifluoromethyl)benzyl)-2,6-diazaspiro[3.3]heptan-2-yl)ethan-1-one], the EC50 was 0.00163 µM.
O=C(CC1CCC(F)(F)CC1)N1CC2(CN(Cc3ccc(F)cc3F)C2)C1 [Cpd B105] showed an EC50 of 0.0026 µM.
With O=C(CC1CCC(F)(F)CC1)N1CC2(CN(Cc3ccc(Cl)cc3F)C2)C1 [Cpd B106] the EC50 was under 0.00019 µM.
With O=C(CC1CCC(F)(F)CC1)N1CC2(CN(Cc3ccc(F)cc3Cl)C2)C1 [Cpd B107] the EC50 was under 0.00019 µM.
With O=C(CC1CCC(F)(F)CC1)N1CC2(CN(Cc3ccccc3C(F)(F)F)C2)C1 [Cpd B108] the EC50 was 0.00258 µM.
Work on O=C(CC1CCC(F)(F)CC1)N1CC2(CN(Cc3ccc(C(F)(F)F)cc3)C2)C1 [Cpd B109] yielded an EC50 of 0.0121 µM.
In the case of O=C(CC1CCC(F)(F)CC1)N1CC2(CN(Cc3c(F)cccc3C(F)(F)F)C2)C1 [Cpd B110], the EC50 is reported as 0.18 µM.
For O=C(CC1CCC(F)(F)CC1)N1CC2(CN(Cc3ccccc3OC(F)F)C2)C1 [Cpd B111], the EC50 was 0.00355 µM.
O=C(CC1CCC(F)(F)CC1)N1CC2(CN(Cc3ccc(Cl)cn3)C2)C1 [Cpd B113] showed an EC50 of 0.0123 µM.
Compound O=C(CC1CCC(F)(F)CC1)N1CC2(CN(Cc3ncccc3Cl)C2)C1 [Cpd B114] has an EC50 of 0.0136 µM.
With O=C(CC1CCC(F)(F)CC1)N1CC2(CN(Cc3ccc(F)cn3)C2)C1 [Cpd B115] the EC50 was 0.0413 µM.
For Cc1cnc(CN2CC3(C2)CN(C(=O)CC2CCC(F)(F)CC2)C3)s1 [Cpd B116], the EC50 was 0.0722 µM.
